Measurements reported in PMC9763021, “Comprehensive Assessment of Biomolecular Interactions of Morpholine-Based Mixed Ligand Cu(II) and Zn(II) Complexes of 2,2′-Bipyridine as Potential Anticancer and SARS-CoV-2 Agents: A Synergistic Experimental and Structure-Based Virtual Screening” (Bioinorganic Chemistry and Applications, 2022).

Columns and labels:
[1] = test system: Escherichia coli; test: Agar disc diffusion, strain A; type: cell-based; set-up: (inhibition %): concentration or dose not given beside the values; settings: for (inhibition %): (T–C)/T×100; for diameter of the clear zone inhibition: control (DMSO) = 6 mm
Procedure: (§1) In-vitro antimicrobial properties were evaluated for all samples by the agar disc diffusion method towards different fungal and bacterial strains. Additionally, the reported inhibition zone values were comparatively analyzed with the standard antifungal drugs ketoconazole and amphotericin B as well as the standard antibiotic medications streptomycin and amikacin.
(§2) The current research has a curious focus on the in vitro antimicrobial properties of biological systems because these studies are crucial for developing effective antibacterial and antifungal medications. […] It can also be spelled out based on the chelation theory proposed by Overtone and Tweedy. Chelation theory points out that the partial exchanging of the positive charge of the metal center with donor moieties, and overlap of the ligand orbitals will reduce the greater degree of the metal ion's polarity, which ultimately rises the delocalization of π and d electrons over the full chelated ring system. By raising the size of the metal ion due to the retarding of polarization, chelation may also enhance the complexes' lipophilic characteristics, which further stimulate the lipid membrane permeability and break down the bacteria' enzymes responsible for cell wall formation, therefore slowing down the regular cell processes. By preventing the production of cell walls/proteins/DNA, including by obstructing folate metabolism and the cytoplasmic membrane, antimicrobial drugs frequently either fully eliminate microbes or only prevent their cell growth. Additionally, the samples' mode of action may be employed in disrupting the cell's respiration process by forming an H-bond during the morpholine-fused iminic group coordinated with the active metal center of its components, inhibiting proliferation of the cell. […] The difference in the antimicrobial efficacy of some of the compounds towards various microorganisms influences on the impermeability of the cells of the germs or the diversity of ribosomes of the microbes. The % of the inhibition of all substances is estimated from (45) (Table 9).
(§3) (A, B, C, D, and E are represented as gram negative bacteria species Escherichia coli, Salmonella enteric serovar typhi, Salmonella enteric serovar typhi, Pseudomonas aeruginosa, and Shigella flexneri, respectively. F & G are denoted as gram positive bacteria species Staphylococcus aureus and Bacillus cereus. H, I, and J are represented as fungal strains Aspergillus niger, Candida albicans, and Mucor indicus. Standard drugs for bacterial strains: Amikacin & Streptomycin Standard drugs for fungal strains: Ketoconazole and Amphotericin B. [Control (DMSO) = 6 mm].(44) Inhibition %=T–C/T×100, where T and C are represented as the diameter of microbial growth of the sample plates and the control plate (6 mm), respectively. Error limits ±2.5–5.0% (P ≤ 0.05).

[2] = target: BSA (Bos taurus, UniProt P02769); test: BSA fluorescence quenching (emission titration); type: binding, bovine; settings: values in brackets; for KSV (BSA), SV method I: 350 nm; for P (BSA), ratio of fluorescence quantum efficiency: F/F0 vs 1/[BSA]; for Kq (BSA), SV method I: Kq=KSV/τ0; for ∆Gb° (BSA), SV method II: –RT lnKass
Procedure: The experiment was performed in the 200 to 800 nm region. This is supporting evidence for the complexes' manner of deoxyribonucleic acid binding. When DNA (200 μM) was present or absent, we carefully monitored the intensity variations between 610 nm and 510 nm during the initial emission and excitation of EB [6, 28, 37]. Similarly, emission titrations for BSA interaction with different concentrations between 2.5 μM and 25 μM for all substances were conducted in a Tris-HCl buffer solution (pH: 7.4) between the regions of 300 nm and 400 nm.
K SV is denoted as Stern–Volmer binding constant; Kass is represented as association binding constant; Kapp is represented as apparent binding constant, Kapp=KEB[EB]/[compound]=500/[compound], KEB = 10^7 M^−1 at the concentration of 50 μM EB; Gibb's free energy change ΔGb°=–RT lnKass; Kq is represented as bimolecular quenching rate constant/Stern–Volmer dynamic quenching rate constant (Kq=KSV/τ0), average life time of the biomolecular quenching in the absence of a quencher (τ0) = 10^−8 S; Gibb's free energy change ΔGb°=–RT lnKass (where R = […], T = 298 K); KLB is represented as Lineweaver–Burk (LWB) binding constant; KSA is represented as Scatchard association binding constant; Kapp is denoted as apparent binding constant; n is the number of binding sites; P is a ratio of fluorescence quantum efficiency of DNA bound and free complex (P=ɸb/ɸf), which is obtained as intercept from plot F/F0 vs. 1/[DNA], Error limit is ± 2.5% (P < 0.025).(12) Fcorr=Fobs×e^Aex×dex+Aem×dem/2=Fobs×e^Aex+Aem/2, where Fcorr and Fobs are represented as the IFE-corrected fluorescence and observed (uncorrected) emission intensities, respectively. dex and dem are denoted as the cuvette path lengths in the excitation and emission directions, respectively. Aex and Aem are represented as the change in absorbance at the excitation and fluorescence wavelengths, respectively.(13) F0 /F=1+KSVQ=1+Kq τ0, where [Q] is represented as the sample concentration, the emission intensities F0 and F of DNA/BSA in the absence and presence of the quencher (sample), respectively.(14) F0 /F−1=F0−F/F=KSVQlogF0−F/F=logKass+n logQ, (15) KEBEB=Kappcompound, (16) 1/F0−F=1/F0 KLBQ+1/F0 , (17) γ/CF =KSCn−γ, where γ = [(F0 − F)/F0], and CF is denoted as the concentration of sample alone.
Additionally, the intensity of bovine serum albumin was monitored at 350 nm (λex = 278 nm) during fluorescence titration. When increasing the sample concentrations, the BSA intensity diminishes dramatically owing to static quenching in the ground state. It is noted that the fluorophores of BSA are not clearly exposed to a shift in polarity. […] Additionally, the Stern–Volmer equations (12)-(13) were employed to analyze the data (Figure S27 and Table 4). […] They are also much exceeded compared to the collision quenching constant value (2.0 × 10^10 mol^−1·s^−1). Therefore, it is assumed that the static quenching process was brought on by adduct construction between the compounds and bovine serum albumin rather than a dynamic collision. However, fluorescence spectroscopy is generally plagued by the inner filter effect (IFE), which disturbs the spectral analysis in particular. The energizing ray is attenuated due to the highly concentrated solution sample. As a result, strong fluorescence is only seen on surfaces facing the excitation beam. The fluorescence intensity is reduced as a result of an inner filter effect generated by some chemicals' absorption of the excitation or emission wavelength in the UV province. The observed values of the absorption wavelength of ligand (HL) and mixed ligand complexes (1a-2a) in the range of 335–337 nm, the bovine serum albumin excitation wavelength of 278 nm, and emission wavelength of 350 nm were used to assess the effect of IFE in this approach. Equation (12) is employed to solve IFE in this instance as well (Table 4). […]

[3] = test system: Staphylococcus aureus; test: Agar disc diffusion, strain F; type: cell-based; set-up: (inhibition %): concentration or dose not given beside the values; settings: for diameter of the clear zone inhibition: control = 6 mm
Procedure: as §1, §2, §3

In the case of `[O-]c1ccccc1N=Cc1ccc(N2CCOCC2)cc1.[O-]c1ccccc1N=Cc1ccc(N2CCOCC2)cc1.[Zn+2].c1ccc(-c2ccccn2)nc1` [(2a), [Zn(L)2(bpy)]], the “(inhibition %)” value [1] is reported as 50%, the “diameter of the clear zone inhibition” value [1] is reported as 12 mm and the “Kass (BSA), SV method II” value [2] is reported as 52910 M⁻¹. For the same compound, the “n (BSA), SV method II” value [2] was 1.041, the “KSV (BSA), SV method I” value [2] was 48050 M⁻¹ and the “P (BSA), ratio of fluorescence quantum efficiency” value (“P (BSA), ratio” below) [2] was 0.348. The “Kq (BSA), SV method I” value [2] was 4.805e+12 M⁻¹ s⁻¹, the “∆Gb° (BSA), SV method II” value [2] was −26.9 kJM^−1 and the “(inhibition %)” value [3] was 45%. For the same compound, the “diameter of the clear zone inhibition” value [3] was 11 mm.
With `[Cu+2].[O-]c1ccccc1N=Cc1ccc(N2CCOCC2)cc1.[O-]c1ccccc1N=Cc1ccc(N2CCOCC2)cc1.c1ccc(-c2ccccn2)nc1` [(1a), [Cu(L)2(bpy)]] the “(inhibition %)” value [1] was 54%, the “diameter of the clear zone inhibition” value [1] was 13 mm and the “Kass (BSA), SV method II” value [2] was 87340 M⁻¹. For the same compound, the “n (BSA), SV method II” value [2] was 1.059, the “KSV (BSA), SV method I” value [2] was 86910 M⁻¹ and the “P (BSA), ratio” value [2] was 0.252. For the same compound, the “Kq (BSA), SV method I” value [2] was 8.691e+12 M⁻¹ s⁻¹, the “∆Gb° (BSA), SV method II” value [2] was −28.2 kJM^−1 and the “(inhibition %)” value [3] was 50%. For the same compound, the “diameter of the clear zone inhibition” value [3] was 12 mm.
For `Oc1ccccc1N=Cc1ccc(N2CCOCC2)cc1` [(HL), 2-(4-morpholinobenzylideneamino)phenol], the “(inhibition %)” value [1] was 33%, the “diameter of the clear zone inhibition” value [1] was 09 mm and the “Kass (BSA), SV method II” value [2] was 10620 M⁻¹. The “n (BSA), SV method II” value [2] was 0.926, the “KSV (BSA), SV method I” value [2] was 26390 M⁻¹ and the “P (BSA), ratio” value [2] was 0.464. The “Kq (BSA), SV method I” value [2] was 2.639e+12 M⁻¹ s⁻¹, the “∆Gb° (BSA), SV method II” value [2] was −23.0 kJM^−1 and the “(inhibition %)” value [3] was 33%. For the same compound, the “diameter of the clear zone inhibition” value [3] was 09 mm.
